These results are taken from patent US20060276393A1, “Novel compositions for preventing and treating neurodegenerative and blood coagulation disorders” (Sirtris Pharmaceuticals, Inc., priority 2005, published 2006).

One data set deals with T1, recombinant human SIRT1 (Homo sapiens, UniProt Q96EB6).
T1 sequence (Q96EB6 1-747): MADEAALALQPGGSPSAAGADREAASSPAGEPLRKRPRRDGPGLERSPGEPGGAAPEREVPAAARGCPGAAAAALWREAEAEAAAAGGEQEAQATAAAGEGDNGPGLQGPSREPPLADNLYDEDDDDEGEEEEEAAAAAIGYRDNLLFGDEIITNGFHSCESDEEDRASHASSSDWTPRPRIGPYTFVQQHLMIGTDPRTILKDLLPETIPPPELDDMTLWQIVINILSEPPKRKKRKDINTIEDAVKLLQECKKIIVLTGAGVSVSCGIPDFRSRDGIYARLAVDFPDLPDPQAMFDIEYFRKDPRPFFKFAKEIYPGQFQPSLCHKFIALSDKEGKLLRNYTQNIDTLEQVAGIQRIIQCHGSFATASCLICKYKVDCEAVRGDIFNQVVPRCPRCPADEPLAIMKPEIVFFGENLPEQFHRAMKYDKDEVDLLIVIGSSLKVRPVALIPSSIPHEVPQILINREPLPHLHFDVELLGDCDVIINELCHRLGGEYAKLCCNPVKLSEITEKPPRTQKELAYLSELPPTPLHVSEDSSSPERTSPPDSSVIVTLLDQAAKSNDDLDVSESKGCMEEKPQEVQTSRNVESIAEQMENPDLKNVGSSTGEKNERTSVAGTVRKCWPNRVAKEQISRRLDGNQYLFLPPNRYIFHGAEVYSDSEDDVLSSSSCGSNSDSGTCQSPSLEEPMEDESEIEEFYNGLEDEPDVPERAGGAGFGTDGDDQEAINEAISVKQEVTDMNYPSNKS
The data set can be described thus: SIRT1 fluorescent deacetylation assay (p53-382 acetylated peptide). The settings on record: for SIRT1 stimulating activity (in words): 25 μM NAD+, 25 μM p53-382 acetylated peptide, compounds at 100 μM. Format: biochemical. The source says:
Lines represent non-linear least-squares fits to the Michaelis-Menten equation. […] Lines represent non-linear least-squares fits to the Michaelis-Menten equation. […] Error bars are standard errors of the mean.
To identify compounds that modulate SIRT1 activity, a number of small molecule libraries were screened using a fluorescent deacetylation assay in 96-well plates^26. The substrate used in the assay was a fluorogenic peptide based on the sequence encompassing the p53-K382 acetylation site, a known target of SIRT1 in vivo^20,21,27. […] The small molecule libraries included analogues of nicotinamide, ε-acetyl lysine, NAD^+, nucleotides, nucleotide analogues and purinergic ligands.
His6-tagged recombinant SIRT1 and GST-tagged recombinant Sir2 were prepared as previously described^26. From 0.1 to 1 μg of SIRT1 and 1.5 μg of Sir2 were used per deacetylation assay (in 50 μl total reaction) as previously described^26.
Themed compound libraries (BIOMOL) were used for primary and secondary screening. Most polyphenol compounds were dissolved at 10 mM in dimethylsulfoxide (DMSO) on the day of the assay. For water soluble compounds and negative controls, 1% v/v DMSO was added to the assay. […] Unless otherwise indicated all initial rate measurements were means of three or more replicates, obtained with single incubation times, at which point 5% or less of the substrate initially present had been deacetylated. Calculation of net fluorescence increases included subtraction of a blank value, which in the case of Sir2 was obtained by omitting the enzyme from the reaction and in the case of SIRT1 by adding an inhibitor (200 μM suramin or 1 mM nicotinamide) to the reaction prior to the acetylated substrate. […] All error bars represent the standard error of the mean.

The test system of a further data set is S. cerevisiae. The experiment in a line: Yeast replicative lifespan. It is filed as cell-based. As to conditions: for % change in yeast replicative lifespan relative to untreated organisms (10 μM): 2% (w/v) glucose YPD, untreated 100%; for Average lifespan: 10 μM compound, 2% glucose medium, wild type untreated 22.9. On the procedure:
Average lifespan for wild type, 22.9 generations, quercetin, 23.4; piceatannol. […]
All yeast strains were grown at 30° C. in complete yeast extract/bactopeptone, 2.0% (w/v) glucose (YPD) medium except where stated otherwise. Calorie restriction was induced in 0.5% glucose. Synthetic complete (SC) medium consisted of 1.67% yeast nitrogen base, 2% glucose, 40 mg/litre each of auxotrophic markers. SIR2 was integrated in extra copy and disrupted as described^5. Other strains are described elsewhere^26. For cellular deacetylation assays, HeLa S3 cells were used. U20S osteosarcoma and human embryonic kidney (HEK 293) cells were cultured adherently in Dulbecco's Modified Eagle's Medium (DMEM) containing 10% fetal calf serum (FCS) with 1.0% glutamine and 1.0% penecillin/streptomycin. HEK 293 overexpressing dominant negative SIRT1 H363Y was a gift of R. Frye (U. Pittsburgh).
Lifespan measurements were performed using PSY316AT MATα as previously described^35. All compounds for lifespan analyses were dissolved in 95% ethanol and plates were dried and used within 24 hours. Prior to lifespan analysis, cells were pre-incubated on their respective media for at least 15 hours. Following transfer to a new plate, cells were equilibrated on the medium for a minimum of 4 hours prior to micro-manipulating them. At least 30 cells were examined per experiment and each experiment was performed at least twice. Statistical significance of lifespan differences was determined using the Wilcoxon rank sum test. Differences are stated to be significant when the confidence is higher than 95%.

For the next data set, the system named is Human 293. The data set can be described thus: Survival of 293 cells. The settings on record: 50 micromolar.
For a further data set, the system named is HDAC. As to conditions: in vitro or in vivo, literature; cited from earlier work.
In a further data set the test system is D. melanogaster. The experiment in a line: D. melanogaster lifespan. Format: in vivo. On the procedure:
Females (a) and males (b) with loss-of-function genotype dSir2^4.5/dSir2^5.26. Females (c) and males (d) with strong hypomorphic genotype dSir2^17/dSir2^KG00871.
Survival assays were conducted independently with adult D. melanogaster in two laboratories. In the first laboratory, all trials used an yw marked wild-type strain. Larvae were reared on standard cornmeal-sugar-yeast (CSY) agar diet (cornmeal 5%, sucrose 10.5%, SAF yeast 2%, and agar 0.7%). Newly eclosed adults were placed in 1 L demography cages with approximately 75 males and 75 females. Three to four replicate 1 L demography cages were used for each treatment group in each trial. Every two days, dead flies were removed and scored, and food vials were replenished. Food vials contained cornmeal-sugar-yeast diet with SAF yeast as either 2% or 3% by weight. Test compounds in 100 μl of EtOH (or blank EtOH in controls) were mixed into melted aliquots of the adult food media to make a final concentration of 0, 10 or 100 μM. Fresh stock solutions and adult media were prepared weekly. In the second laboratory, lifespan trials were conducted with the wild type strain Canton-S, dSir2^4.5 and dSir2^5.26 (S. Smolik, University of Oregon), dSir2^17 (S. Astrom, Stockholm University, Sweden), and dSir2^KG00871 (Drosophila Stock Center, Bloomington, Ind.). Larvae for all tests were reared on standard cornmeal-sugar-yeast diet. Newly eclosed adults were incubated in plastic shell vials containing 5 ml of 15% sugar-yeast diet (15% SY) or 5% sugar-yeast (5% SY) diet (15% SY: 15% yeast, 15% sucrose, 2% agar; 5% SY: 5% yeast, 5% sucrose, 2% agar as per Ref. ^20). In all trials, ˜20 males with ˜20 females were placed into each of 10 vials/treatment group. Every two days, flies were passed into new vials and dead flies were counted. […] Final compound concentrations were 0, 10, 100 or 200 μM. Fresh stock solution and adult media was prepared weekly.

Values joined by “and” are separate entries in the source; they are usually repeats but may differ in a detail not shown here. Equal entries are not always repeated. “Also recorded” adds a separate entry of the source. Where only a bound is given, the exact number is not on record here.

Source text for Human 293: The number of live cells each time point was counted using a Coulter counter.

For the molecule 5,7,4′-Trihydroxyflavanone [genistein], at recombinant human SIRT1, the “SIRT1 stimulating activity (in words)” value is “absence of activity”.
For the molecule `Oc1cc(O)cc(/C=C/c2ccc(F)cc2)c1` [BML-212, 3,5-Dihydroxy-4′-fluoro-trans-stilbene], in the data set on S. cerevisiae (10 μM), the “% change in yeast replicative lifespan relative to untreated organisms (10 μM)” value worked out at 98%.
As for `Oc1cc(O)cc(/C=C/c2ccc(Cl)cc2)c1` [BML-217, 3,5-Dihydroxy-4′-chloro-trans-stilbene], the “SIRT1 stimulating activity (in words)” value at recombinant human SIRT1 is reported as “did the least to decrease activity; also recorded: did not significantly diminish the SIRT1 activating effect”. Besides, the “% change in yeast replicative lifespan relative to untreated organisms (10 μM)” value in the data set with S. cerevisiae (10 μM) is recorded as 90%.
On to `O=C(Nc1cc(O)cc(O)c1)c1ccccc1` [BML-219, N-(3,5-Dihydroxyphenyl)benzamide], for which the “SIRT1 stimulating activity (in words)” value on recombinant human SIRT1 is on record as “abolished activity”.
Regarding `Oc1cc(O)cc(/C=C/C2CCCCC2)c1` [BML-224], the “SIRT1 stimulating activity (in words)” value at recombinant human SIRT1 is listed as “nearly as detrimental to SIRT1 stimulating activity”.
On to `CCc1ccc(/C=C/c2cc(O)cc(O)c2)cc1` [BML-225], for which the “Survival of 293 cells” value amounted to 100% with Human 293 (0 h), 5% with Human 293 (48 h) and 8% in the data set on Human 293 (96 h).
Regarding `Cc1ccc(/C=C/c2cc(O)cc(O)c2)cc1` [BML-228], the “Survival of 293 cells” value is 100% in the data set with Human 293 (0 h), 46% with Human 293 (48 h) and 32% in the data set on Human 293 (96 h). Besides, on recombinant human SIRT1, the “SIRT1 stimulating activity (in words)” value was “did the least to decrease activity”.
In the case of `CSc1ccc(/C=C/c2cc(O)cc(O)c2)cc1` [BML-230], the “Survival of 293 cells” value in the data set with Human 293 (0 h) was found to be 100%; in the data set on Human 293 (48 h), 55%; in the data set with Human 293 (96 h), 57%. In addition, the “toxicity on 293 cells (in words)” value with Human 293 (96 hours) is on record as “least toxic on 293 cells”. The “v1/v2, ratio of BML-230-stimulated to resveratrol-stimulated SIRT1 rate” value on recombinant human SIRT1 (R at 500 μM) is on record as at most 1.4. For the same molecule, the “BML-230-stimulated SIRT1 activity compared with resveratrol” value at recombinant human SIRT1 (dose response, 25 μM each NAD+ and p53-382 peptide, 20 min) is “exceeds that stimulated by resveratrol at all concentrations tested”. Also, the “dissociation constant of SIRT1/activator complex (comparison)” value on recombinant human SIRT1 (inferred from two state model, FIG. 9b) was “lower dissociation constant than SIRT1/resveratrol”.
Regarding `O=C(/C=C/c1cccc(C(=O)NO)c1)NO` [CBHA, m-carboxy-cinnamic acid bishydroxamic acid], in the data set on HDAC, the “HDAC inhibition (in words)” value is given as “micromolar concentration or lower”.
As to `C/C=C1\NC(=O)[C@H]2CSSCC/C=C/[C@H](CC(=O)N[C@H](C(C)C)C(=O)N2)OC(=O)[C@H](C(C)C)NC1=O` [Depsipeptide], in the data set on HDAC, the “HDAC inhibition (in words)” value was “micromolar concentrations”.
Take `NC(=O)c1cccnc1` [Nicotinamide, nicotinamide]: the “SIRT1 Vmax decrease” value on recombinant human SIRT1 (50 μM nicotinamide, absence of resveratrol, NAD+ or acetylated peptide varied) was 30% and 36%.
`O=c1c(O)c(-c2ccc(O)c(O)c2)oc2cc(O)ccc12` [fisetin, 3,7,3′,4′-Tetrahyddroxyflavone]: in the data set with S. cerevisiae (10 μM), the “increase of average lifespan” value stood at 55% and the “maximum lifespan (in words)” value is “significantly increased maximum lifespan”. In addition, in the data set on S. cerevisiae, the Average lifespan turned out to be 30.0 generations. For the same molecule, in the data set on D. melanogaster (restricted diet), the “longevity on restricted diet” value was “neither resveratrol nor fisetin further increased longevity”. Moreover, the “lifespan extended (maximum)” value in the data set with D. melanogaster (wild type Canton-S and yw, males and females, normal diet) is “up to 23%”.
Turning to `Oc1cc(O)cc(/C=C/c2ccc(O)c(O)c2)c1` [piceatannol, 3,5,3′,4′-Tetrahydroxy-trans-stilbene], the “stimulated SIRT1 activity” value at recombinant human SIRT1 (initial library screen, fluorogenic p53-K382 peptide (Table 1)) is reported as “eight”. Moreover, the “effect on lifespan (in words)” value with S. cerevisiae (10 μM) is reported as “no significant effect on lifespan”. In the data set on S. cerevisiae, this molecule returned an Average lifespan of 24.0 generations.
In the case of `O=c1c(O)c(-c2ccc(O)c(O)c2)oc2cc(O)cc(O)c12` [quercetin, 3,5,7,3′,4′-Pentahydroxyflavone], in the data set on S. cerevisiae (10 μM), the “effect on lifespan (in words)” value was “no significant effect on lifespan”. In addition, the Average lifespan with S. cerevisiae turned out to be 23.4 generations.
For the molecule depudecin, in the data set on HDAC, the “HDAC inhibition (in words)” value is recorded as “micromolar concentrations”.
With trichostatin A [TSA], the “HDAC inhibition (in words)” value in the data set on HDAC is given as “potent inhibitor of mammalian HDAC”.
